Results on nine molecules are retold here after EP4678638A1, “NEW E3 UBIQUITIN LIGASE LIGAND, PROTEIN DEGRADATION AGENT AND USE THEREOF” (priority 2023, dated 2024).

Like-named read-outs stand apart in the source and are kept apart here.

In one test the target is T1, FAK (Homo sapiens, UniProt Q05397).
T1 construct: evaluate the effects of the compounds of the present disclosure on the expression of target proteins in cells; endogenous in cells
The test can be described thus: Western blot degradation of FAK. The format is cell-based. Particulars: Table D7. How it is done: Conventional Western blot assay was performed to evaluate the effects of the compounds of the present disclosure on the expression of target proteins in cells.
(1) Cell Seeding and Protein Harvesting: The selected cells were processed according to the cell seeding procedure and protein harvesting procedure in Table III-2. Table III-2 Cell Seeding and Protein Harvesting Procedures
(2) To the collected supernatant, 5X SDS sample loading buffer was added, followed by denaturation at 95°C for 5 minutes. The denatured samples were then separated by SDS-PAGE electrophoresis on a polyacrylamide gel. Proteins were transferred to a nitrocellulose membrane (0.45 µm NC membrane), blocked with blocking buffer at room temperature for 1 hour, and subjected to antibody incubation and development procedures according to the antibody manufacturer's instructions (Cell Signaling Technology).
Half-Maximal Degradation Concentration value (the drug concentration required for degrading proteins by 50%, abbreviated as DC50) reads method: comparing the grayscale values of Western blot bands from drug-treated samples with those from blank DMSO-treated controls, and identifying the drug concentration range at which the grayscale value is half that of the DMSO-treated control bands.
DC50 values can be calculated using ImageJ software to measure grayscale values of Western blot bands from drug-treated samples. The concentration-response curve is fitted to estimate the drug concentration corresponding to half the grayscale value.
Target protein remaining (%) refers to the percentage of target protein remaining in hPBMC cells after treatment with protein degrader compounds.
Calculation method for target protein remaining (%): Use ImageJ software to measure grayscale values of Western blot bands from drug (protein degrader)-treated samples. The grayscale value of drug-treated bands is divided by that of internal control protein bands, and the resulting quotient is normalized to obtain the relative percentage of remaining target protein after protein degrader treatment.
Target protein degradation rate (%) = 100% - target protein remaining (%).

Another test deals with MM.1S. Description: CCK-8 proliferation, MM.1S. The class given is cell-based. The settings on record: Table B10, compounds designed based on the IRAK4 inhibitors, MM.1S cells, read-out: Inhibitory activity (IC50, nM) on tumor cell proliferation, MM.1S. In outline:
(§1)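 Tumor cells were cultured at 37°C with 5% CO2, seeded, and after 24h treated with compounds at 10 concentrations starting at 10µM (5-fold serial dilutions).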

The next test has as its system Jurkat. The test can be described thus: CCK-8 proliferation, Jurkat. The format is cell-based, Human. How it is done:
The tumor cells used herein were cultured in a cell culture medium listed in table A1 at 37°C in an incubator with 5% CO2. Prior to experimentation, all cell lines used were correctly identified by STR profiling, and tested negative for mycoplasma contamination using a mycoplasma detection kit through routine screenings. Table A1. Tumor cells and cell culture medium used in the present disclosure
IC50 values of the compounds of the present disclosure (including the compounds in Table 1, and compounds of examples) were measured using the Meilun Cell Counting Kit-8 kit from Dalian Meilun Biotech Co., Ltd. Assay details are as follows: tumor cells were seeded in a 96-well plate at a density listed in Table A2. After 24h, 100 µL of the inoculated cells were treated with 0.5µL of the compounds of the present disclosure (including the compounds in Tables 1 and 2, and compounds of examples) at 10 different successively decreasing concentrations (starting at the highest concentration of 10µM; 5-fold serial dilutions). After the cells were treated with the compounds of the present disclosure for a period of time, the cell viability detection reagent was added to the culture medium for cell viability assessment according to the instructions provided with the CCK-8 kit. […] The growth inhibition of the compounds of the present disclosure on cells was plotted by Prism Graphpad software, and the IC50 values of the compounds of the present disclosure were calculated therefrom. […] Seeding protocol and treatment time for tumor cells

Another test relates to SR. The test can be described thus: CCK-8 proliferation, SR. The class given is cell-based, Human. Particulars: Table B10, compounds designed based on the IRAK4 inhibitors, SR cells, read-out: Inhibitory activity (IC50, nM) on tumor cell proliferation, SR. In outline: as §1
The next test concerns CCRF-CEM. Description: CCK-8 proliferation, CCRF-CEM. The class given is cell-based, Human. The settings on record: Homo sapiens, CCRF-CEM; CCK-8; 96 hours; read-out: Inhibitory activity (IC50) on tumor cell proliferation, CCRF-CEM. Summed up: as §1
The target in another test is T2, IRAK4 (Homo sapiens, UniProt Q9NWZ3).
T2 construct: evaluate the effects of the compounds of the present disclosure on the expression of target proteins in cells; endogenous in cells; host or cells: hPBMC
T2 sequence (Q9NWZ3 1-460): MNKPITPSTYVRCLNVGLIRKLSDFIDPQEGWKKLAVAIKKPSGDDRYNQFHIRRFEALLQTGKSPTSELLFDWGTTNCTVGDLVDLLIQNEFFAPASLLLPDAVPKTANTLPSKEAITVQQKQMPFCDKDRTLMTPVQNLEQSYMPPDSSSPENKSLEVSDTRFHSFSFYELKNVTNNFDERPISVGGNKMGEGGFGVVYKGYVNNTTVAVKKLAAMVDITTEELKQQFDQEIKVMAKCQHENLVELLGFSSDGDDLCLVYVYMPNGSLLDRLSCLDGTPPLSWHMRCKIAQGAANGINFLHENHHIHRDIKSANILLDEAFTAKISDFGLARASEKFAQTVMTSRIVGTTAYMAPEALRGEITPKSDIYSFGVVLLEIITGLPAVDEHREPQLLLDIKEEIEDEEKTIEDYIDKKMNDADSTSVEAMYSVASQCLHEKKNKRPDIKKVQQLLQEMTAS
Description: Western blot degradation of IRAK4 (hPBMC). The format is cell-based. Particulars: Table D1. In outline:
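After compound exposure, cells were harvested and lysates run on SDS-PAGE, transferred to nitrocellulose and probed with antibodies. Remaining target (%) was computed from band grayscale relative to an internal control protein and normalised; degradation (%) was 100% minus that.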

Setting [1] is: Homo sapiens, Table B10, compounds designed based on the IRAK4 inhibitors, Jurkat cells, read-out: Inhibitory activity (IC50, nM) on tumor cell proliferation, Jurkat.
The mark [2] stands for this setting: Homo sapiens, Jurkat, CCK-8, 96 hours, read-out: Inhibitory activity (IC50) on tumor cell proliferation, Jurkat.

T1 sequence (Q05397 whole entry, species assumed): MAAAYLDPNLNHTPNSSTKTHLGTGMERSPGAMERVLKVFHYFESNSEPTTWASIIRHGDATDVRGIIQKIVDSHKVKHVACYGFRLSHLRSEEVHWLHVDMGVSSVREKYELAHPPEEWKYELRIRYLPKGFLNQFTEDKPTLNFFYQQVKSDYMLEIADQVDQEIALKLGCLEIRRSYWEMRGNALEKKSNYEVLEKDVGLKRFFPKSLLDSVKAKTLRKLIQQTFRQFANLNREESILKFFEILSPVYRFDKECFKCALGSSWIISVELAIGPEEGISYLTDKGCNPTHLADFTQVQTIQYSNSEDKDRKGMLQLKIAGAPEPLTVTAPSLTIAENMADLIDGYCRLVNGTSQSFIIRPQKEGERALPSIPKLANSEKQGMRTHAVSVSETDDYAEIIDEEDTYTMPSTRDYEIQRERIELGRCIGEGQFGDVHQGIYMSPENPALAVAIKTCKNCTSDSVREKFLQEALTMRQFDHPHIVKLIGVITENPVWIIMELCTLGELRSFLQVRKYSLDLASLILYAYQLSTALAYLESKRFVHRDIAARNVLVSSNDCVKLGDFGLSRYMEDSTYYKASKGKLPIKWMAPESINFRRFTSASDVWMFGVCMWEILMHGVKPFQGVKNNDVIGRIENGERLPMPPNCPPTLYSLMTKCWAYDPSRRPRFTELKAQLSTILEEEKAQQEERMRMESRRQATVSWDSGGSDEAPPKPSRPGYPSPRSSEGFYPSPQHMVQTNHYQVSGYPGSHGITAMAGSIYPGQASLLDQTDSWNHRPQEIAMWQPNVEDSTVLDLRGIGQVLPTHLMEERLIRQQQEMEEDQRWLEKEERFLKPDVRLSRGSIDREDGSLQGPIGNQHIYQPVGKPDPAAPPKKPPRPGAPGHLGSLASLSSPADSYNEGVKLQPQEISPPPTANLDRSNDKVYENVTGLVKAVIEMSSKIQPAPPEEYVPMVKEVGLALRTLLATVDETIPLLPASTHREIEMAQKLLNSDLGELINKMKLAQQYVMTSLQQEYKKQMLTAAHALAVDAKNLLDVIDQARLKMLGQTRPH

Turning to `CNC(=O)c1ccccc1Nc1cc(Nc2cc(C)c(C3CCN(Cc4ccc(C5CCC(=O)NC5=O)cc4)CC3)cc2OC(C)C)ncc1C(F)(F)F` (stereo not drawn) [GT-04084, 2-((2-((4-(1-(4-(2,6-dioxopiperidin-3-yl)benzyl)piperidin-4-yl)-2-isopropoxy-5-methylphenyl)amino)-5-(trifluoromethyl)pyridin-4-yl)amino)-N-methylbenzamide], the “Degradation of substrate protein FAK (substrate protein remaining %)” value on FAK is “A (A is defined as 0% ≤ substrate protein remaining % ≤ 80%)”.
In the case of `CN(c1nccnc1CNc1nc(Nc2ccc(N3CCN(Cc4ccnc(C5CCC(=O)NC5=O)c4)CC3)cc2)ncc1C(F)(F)F)S(C)(=O)=O` (stereo not drawn) [GT-07507, N-(3-(((2-((4-(4-((2-(2,6-dioxopiperidin-3-yl)pyridin-4-yl)methyl)piperazin-1-yl)phenyl)amino)-5-(trifluoromethyl)pyrimidin-4-yl)amino)methyl)pyrazin-2-yl)-N-methylmethanesulfonamide], the “Degradation of substrate protein FAK (substrate protein remaining %)” value on FAK was “A (A is defined as 0% ≤ substrate protein remaining % ≤ 80%)”.
Regarding `CN(c1nccnc1CNc1nc(Nc2ccc(N3CCN(Cc4ccnc(N5CCC(=O)NC5=O)c4)CC3)cc2)ncc1C(F)(F)F)S(C)(=O)=O` [GT-07406, N-(3-(((2-((4-(4-((2-(2,4-dioxotetrahydropyrimidin-1(2H)-yl)pyridin-4-yl)methyl)piperazin-1-yl)phenyl)amino)-5-(trifluoromethyl)pyrimidin-4-yl)amino)methyl)pyrazin-2-yl)-N-methylmethanesulfonamide], the “Degradation of substrate protein FAK (substrate protein remaining %)” value on FAK is recorded as “A (A is defined as 0% ≤ substrate protein remaining % ≤ 80%)”.
Turning to `O=C1CCC(c2ccc(CN3CCC(N4CCN(c5ccc6c(c5)nc(NC(=O)c5cccc(C(F)(F)F)c5)n6[C@H]5CC[C@@H](CO)CC5)CC4)CC3)cc2)C(=O)N1` (stereo partly drawn) [GT-05020, N-(5-(4-(1-(4-(2,6-dioxopiperidin-3-yl)benzyl)piperidin-4-yl)piperazin-1-yl)-1-((1s,4s)-4-(hydroxymethyl)cyclohexyl) -1H-benzo[d]imidazol-2-yl)-3-(trifluoromethyl)benzamide], the IC50 with MM.1S (Homo sapiens, MM1.S) is 500 to 1000 nM; in the test with Jurkat (setting [1]) it was 500 to 1000 nM; with SR (Homo sapiens) it was 500 to 1000 nM.
As to `CN(c1nccnc1CNc1nc(Nc2ccc(N3CCN(Cc4cc(N5CCC(=O)NC5=O)ncc4F)CC3)cc2)ncc1C(F)(F)F)S(C)(=O)=O` [GT-07405, N-(3-(((2-((4-(4-((2-(2,4-dioxotetrahydropyrimidin-1(2H)-yl)-5-fluoropyridin-4-yl)methyl)piperazin-1-yl)phenyl)amino)-5-(trifluoromethyl)pyrimidin-4-yl)amino)methyl)pyrazin-2-yl)-N-methylmethanesulfonamide], the “Degradation of substrate protein FAK (substrate protein remaining %)” value on FAK is on record as “A (A is defined as 0% ≤ substrate protein remaining % ≤ 80%)”.
Take `CC1(C)CCC(c2ccc(Cl)cc2)=C(CN2CCN(c3ccc(C(=O)NS(=O)(=O)c4ccc(N[C@H](CCN5CCN(Cc6cc(N7CCC(=O)NC7=O)ncc6F)CC5)CSc5ccccc5)c(S(=O)(=O)C(F)(F)F)c4)cc3)CC2)C1` [GT-07716, (R)-4-(4-((4'-chloro-4,4-dimethyl-3,4,5,6-tetrahydro-[1,1'-biphenyl]-2-yl)methyl)piperazin-1-yl)-N-((4-((4-(4-((2-(2,4-dioxotetrahydropyrimidin-1(2H)-yl)-5-fluoropyridin-4-yl)methyl)piperazin-1-yl)-1-(phenylthio)butan-2-yl)amino)-3-((trifluoromethyl)sulfonyl)phenyl)sulfonyl)benzamide]: the figures for the IC50 with Jurkat (setting [2]) and in the test with CCRF-CEM were 50 to 100 nM and 10 to 50 nM, respectively.
In the case of `CC1(C)CCC(c2ccc(Cl)cc2)=C(CN2CCN(c3ccc(C(=O)NS(=O)(=O)c4ccc(N[C@H](CCN5CCN(Cc6ccnc(N7CCC(=O)NC7=O)c6)CC5)CSc5ccccc5)c(S(=O)(=O)C(F)(F)F)c4)cc3)CC2)C1` [GT-07717, (R)-4-(4-((4'-chloro-4,4-dimethyl-3,4,5,6-tetrahydro-[1,1'-biphenyl]-2-yl)methyl)piperazin-1-yl)-N-((4-((4-(4-((2-(2,4-dioxotetrahydropyrimidin-1(2H)-yl)pyridin-4-yl)methyl)piperazin-1-yl)-1-(phenylthio)butan-2-yl)amino)-3-((trifluoromethyl)sulfonyl)phenyl)sulfonyl)benzamide], the IC50 in the test with Jurkat (setting [2]) and with CCRF-CEM was 10 to 50 nM in each case.
In the case of `O=C1CCC(Nc2cccc(CN3CCC(N4CCN(c5ccc6c(c5)nc(NC(=O)c5cccc(C(F)(F)F)c5)n6[C@H]5CC[C@@H](CO)CC5)CC4)CC3)c2)C(=O)N1` (stereo partly drawn) [GT-05023, N-(5-(4-(1-(3-((2,6-dioxopiperidin-3-yl)amino)benzyl)piperidin-4-yl)piperazin-1-yl)-1-((1s,4s)-4-(hydroxymethyl)cyclohexyl) -1H-benzo[d]imidazol-2-yl)-3-(trifluoromethyl)benzamide], the “Degradation of substrate protein IRAK4 (substrate protein remaining %)” value on IRAK4 is recorded as “A (A is defined as 0% ≤ substrate protein remaining % ≤ 80%)”. For the same molecule, the IC50 in the test on MM.1S (Homo sapiens, MM1.S) lay in the range of 500 to 1000 nM; in the test on Jurkat (setting [1]) it was 500 to 1000 nM; in the test with SR (Homo sapiens) it was 500 to 1000 nM.
As for `O=C1CCN(c2ccc(CN3CCC(N4CCN(c5ccc6c(c5)nc(NC(=O)c5cccc(C(F)(F)F)c5)n6[C@H]5CC[C@@H](CO)CC5)CC4)CC3)cn2)C(=O)N1` [GT-05025, N-(5-(4-(1-((6-(2,4-dioxotetrahydropyrimidin-1(2H)-yl)pyridin-3-yl)methyl)piperidin-4-yl)piperazin-1-yl)-1-((1s,4s)-4-(hydroxymethyl)cyclohexyl) -1H-benzo[d]imidazol-2-yl)-3-(trifluoromethyl)benzamide], the IC50 lay in the range of 500 to 1000 nM in the test on MM.1S; 500 to 1000 nM in the test with Jurkat (Table B10, compounds designed based on the IRAK4 inhibitors, Jurkat cells, read-out: Inhibitory activity (IC50, nM) on tumor cell proliferation, Jurkat); 500 to 1000 nM with SR.
